Assay results taken from PubChem BioAssay AID248 (DTP/NCI, 2004).
Values joined by “and” are separate entries in the source; they are usually repeats but may differ in a detail not shown here. Equal entries are not always repeated. Inconclusive results and toxic doses are left out. No stated cut-off is given here; in the data, active means T/C of 150% or more; inactive means T/C below 125%.

Test system: L1210 leukemia ip in BDF1 mice, survival T/C
Assay: NCI In Vivo Anticancer Drug Screen. Data for tumor model L1210 Leukemia (intraperitoneal) in B6D2F1 (BDF1) mice
Conditions: endpoint: mean survival time, higher = longer survival
In short: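 Mice bearing the transplanted tumor received compound or vehicle. Survival of the treated group was divided by that of the vehicle-treated control group to give the ratio.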

[1] = dose: 25.0 mg/kg/injection, schedule: Q01DX001 (ip), vehicle: saline with Tween-80
[2] = dose: 100.0 mg/kg/injection, schedule: Q01DX001 (ip), vehicle: saline with Tween-80
[3] = dose: 100.0 mg/kg/injection, schedule: Q04DX002 (ip), vehicle: Klucel (hydroxypropylcellulose) (HPC)
[4] = dose: 200.0 mg/kg/injection, schedule: Q04DX002 (ip), vehicle: Klucel (hydroxypropylcellulose) (HPC)
[5] = dose: 400.0 mg/kg/injection, schedule: Q04DX002 (ip), vehicle: Klucel (hydroxypropylcellulose) (HPC)
[6] = dose: 12.5 mg/kg/injection, schedule: Q01DX009 (ip), vehicle: Klucel (hydroxypropylcellulose) (HPC)
[7] = dose: 25.0 mg/kg/injection, schedule: Q01DX009 (ip), vehicle: Klucel (hydroxypropylcellulose) (HPC)
[8] = dose: 25.0 mg/kg/injection, schedule: Q04DX003 (ip), vehicle: Klucel (hydroxypropylcellulose) (HPC)
[9] = dose: 50.0 mg/kg/injection, schedule: Q01DX009 (ip), vehicle: Klucel (hydroxypropylcellulose) (HPC)
[10] = dose: 50.0 mg/kg/injection, schedule: Q04DX003 (ip), vehicle: Klucel (hydroxypropylcellulose) (HPC)
[11] = dose: 100.0 mg/kg/injection, schedule: Q01DX001 (ip), vehicle: saline
[12] = dose: 200.0 mg/kg/injection, schedule: Q01DX001 (ip), vehicle: saline
[13] = dose: 400.0 mg/kg/injection, schedule: Q01DX001 (ip), vehicle: saline
[14] = dose: 100.0 mg/kg/injection, schedule: Q04DX002 (ip), vehicle: saline with Tween-80
[15] = dose: 200.0 mg/kg/injection, schedule: Q04DX002 (ip), vehicle: saline with Tween-80
[16] = dose: 400.0 mg/kg/injection, schedule: Q04DX002 (ip), vehicle: saline with Tween-80
[17] = dose: 100.0 mg/kg/injection, schedule: Q04DX003 (ip), vehicle: Klucel (hydroxypropylcellulose) (HPC)
[18] = dose: 200.0 mg/kg/injection, schedule: Q04DX003 (ip), vehicle: Klucel (hydroxypropylcellulose) (HPC)
[19] = dose: 400.0 mg/kg/injection, schedule: Q04DX003 (ip), vehicle: Klucel (hydroxypropylcellulose) (HPC)
[20] = dose: 100.0 mg/kg/injection, schedule: Q01DX009 (ip), vehicle: Klucel (hydroxypropylcellulose) (HPC)
[21] = dose: 200.0 mg/kg/injection, schedule: Q01DX009 (ip), vehicle: Klucel (hydroxypropylcellulose) (HPC)

Measured: T/C

N/N=C\C(=N/N)C(O)C(O)C(O)CO (centres undefined)
inactive: [1] 93 % of control | dose: 50.0 mg/kg/injection, schedule: Q01DX001 (ip), vehicle: saline with Tween-80 90 % of control | [2] 87 % of control

Cc1nc2cc(N=Cc3ccc(N(CCCl)CCCl)cc3F)ccc2n1C
inactive: [3] 104 % of control | [4] 101 % of control | [5] 104 % of control

N#CCNC(=O)c1ccccc1
inactive: [6] 101 % of control | [7] 104 % of control | [8] 98 % of control | [9] 102 % of control | [10] 98 % of control

COC(=O)C12OCC34C(CC5C(C)=C(O)C(=O)CC5(C)C3C(O)C1O)OC(=O)C(OC(=O)/C=C(\C)C(C)(C)O)C24 (centres undefined)
inactive: dose: 0.06 mg/kg/injection, schedule: Q01DX009 (ip), vehicle: saline with Tween-80 116 % of control | dose: 0.5 mg/kg/injection, schedule: Q01DX009 (ip), vehicle: saline with Tween-80 112 % of control | dose: 1.0 mg/kg/injection, schedule: Q01DX009 (ip), vehicle: saline with Tween-80 105 % of control | dose: 2.0 mg/kg/injection, schedule: Q01DX009 (ip), vehicle: saline with Tween-80 107 % of control

O=C1C(O)=C(c2ccc(Br)cc2)C(=O)C(O)=C1c1ccc(Br)cc1
inactive: dose: 75.0 mg/kg/injection, schedule: Q01DX001 (ip), vehicle: other 103 % of control

FC(F)(F)c1cccc(N2N=NC3CC/C(=C\c4ccccc4)C32N2CCOCC2)c1 (centres undefined)
inactive: [3] 97 % of control | [4] 90 % of control | [5] 93 % of control

COC(=O)c1ccc(OC(C)OCCCl)cc1 (centres undefined)
inactive: dose: 100.0 mg/kg/injection, schedule: Q04DX002 (ip), vehicle: saline 93 % of control | dose: 200.0 mg/kg/injection, schedule: Q04DX002 (ip), vehicle: saline 96 % of control | dose: 400.0 mg/kg/injection, schedule: Q04DX002 (ip), vehicle: saline 96 % of control

CCCCCCCCCCC/C=N\[N+](C)(C)C
inactive: [6] 108 % of control | [7] 95 % of control

O=C(NCCBr)C(F)(F)F
inactive: dose: 25.0 mg/kg/injection, schedule: Q01DX009 (ip), vehicle: saline 113 % of control | dose: 50.0 mg/kg/injection, schedule: Q01DX009 (ip), vehicle: saline 103 % of control | [11] 104 % of control | dose: 100.0 mg/kg/injection, schedule: Q01DX009 (ip), vehicle: saline 105 % of control | [12] 109 % of control | [13] 112 % of control

C[N+](C)(C)CC1(COC(=O)C(O)(c2ccccc2)c2ccccc2)CCC1
inactive: dose: 12.0 mg/kg/injection, schedule: Q01DX001 (ip), vehicle: Klucel (hydroxypropylcellulose) (HPC) 100 % of control | dose: 12.0 mg/kg/injection, schedule: Q04DX003 (ip), vehicle: Klucel (hydroxypropylcellulose) (HPC) 94 % of control | dose: 25.0 mg/kg/injection, schedule: Q01DX001 (ip), vehicle: Klucel (hydroxypropylcellulose) (HPC) 98 % of control | [8] 86 % of control | dose: 50.0 mg/kg/injection, schedule: Q01DX001 (ip), vehicle: Klucel (hydroxypropylcellulose) (HPC) 96 % of control | [10] 86 % of control

Cc1ccc([N+](=O)[O-])c2ccccc12
inactive: [2] 103 % of control | dose: 200.0 mg/kg/injection, schedule: Q01DX001 (ip), vehicle: saline with Tween-80 97 % of control | dose: 400.0 mg/kg/injection, schedule: Q01DX001 (ip), vehicle: saline with Tween-80 97 % of control

CN(C)c1ccc(C(=O)CCCN2CCC(O)(c3ccc(Cl)cc3)CC2)cc1
inactive: dose: 100.0 mg/kg/injection, schedule: Q01DX001 (ip), vehicle: Klucel (hydroxypropylcellulose) (HPC) 95 % of control | dose: 200.0 mg/kg/injection, schedule: Q01DX001 (ip), vehicle: Klucel (hydroxypropylcellulose) (HPC) 94 % of control | dose: 400.0 mg/kg/injection, schedule: Q01DX001 (ip), vehicle: Klucel (hydroxypropylcellulose) (HPC) 90 % of control

CCOC(=O)c1ccc(F)cc1
inactive: [14] 101 % of control | [15] 115 % of control | [16] 104 % of control

Cc1cc(O)c(CN(C)C)cc1O
inactive: dose: 75.0 mg/kg/injection, schedule: Q01DX001 (ip), vehicle: saline 103 % of control | dose: 150.0 mg/kg/injection, schedule: Q01DX001 (ip), vehicle: saline 104 % of control

CCOC(=O)c1cc(C)nc2ccc(Br)cc12
inactive: [14] 97 % of control | [15] 108 % of control | [16] 97 % of control

O=C1C(Cl)=C(N=Nc2c(Cl)c(O)c3ccccc3c2O)C(=O)c2ccccc21
inactive: dose: 12.5 mg/kg/injection, schedule: Q01DX009 (ip), vehicle: acetone 105 % of control | dose: 25.0 mg/kg/injection, schedule: Q01DX009 (ip), vehicle: acetone 107 % of control | dose: 50.0 mg/kg/injection, schedule: Q01DX009 (ip), vehicle: acetone 104 % of control | dose: 100.0 mg/kg/injection, schedule: Q01DX001 (ip), vehicle: carboxymethylcellulose (CMC) 97 % of control

CCC1(/C(C)=C/C(C)C)C(=O)NC(=O)NC1=O
inactive: dose: 5.0 mg/kg/injection, schedule: Q01DX001 (ip), vehicle: saline 96 % of control | dose: 10.0 mg/kg/injection, schedule: Q01DX001 (ip), vehicle: saline 101 % of control

O=c1[nH]c(CCCc2ccccc2)c(Br)c(=O)[nH]1
inactive: [3] 100 % of control | [4] 100 % of control | [5] 92 % of control

CCN(CCCl)Cc1ccc(-c2c3ccccc3cc3c2ccc2ccccc23)cc1
inactive: dose: 78.0 mg/kg/injection, schedule: Q01DX001 (ip), vehicle: carboxymethylcellulose (CMC) 90 % of control | dose: 118.0 mg/kg/injection, schedule: Q01DX001 (ip), vehicle: carboxymethylcellulose (CMC) 92 % of control | dose: 177.0 mg/kg/injection, schedule: Q01DX001 (ip), vehicle: carboxymethylcellulose (CMC) 95 % of control

Cc1ccc(S(=O)(=O)SS(=O)(=O)c2ccc(C)cc2)cc1
inactive: [14] 90 % of control | [15] 90 % of control | [16] 90 % of control

S=C(c1ccccn1)N1CCOCC1
inactive: [17] 90 % of control | [18] 102 % of control | [19] 95 % of control

CS(=O)(=O)Cc1ccccc1
inactive: [20] 101 % of control | [3] 86 % of control | [21] 101 % of control | [4] 101 % of control | dose: 400.0 mg/kg/injection, schedule: Q01DX009 (ip), vehicle: Klucel (hydroxypropylcellulose) (HPC) 86 % of control | [5] 90 % of control

O=[N+]([O-])c1ccc(O)cc1/C=N/Nc1nnc(N/N=C/c2cc(O)ccc2[N+](=O)[O-])c2ccccc12
inactive: dose: 50.0 mg/kg/injection, schedule: Q01DX001 (ip), vehicle: saline 98 % of control | [11] 98 % of control | [12] 98 % of control | [13] 102 % of control

Cc1cc(=O)n(-c2ccccc2)cn1
inactive: [17] 98 % of control | [18] 89 % of control | [19] 96 % of control

CC(=O)Nc1ccc(N=NN(C)C)cc1
inactive: dose: 1.56 mg/kg/injection, schedule: Q04DX003 (ip), vehicle: saline with Tween-80 97 % of control and 101 % of control | dose: 3.12 mg/kg/injection, schedule: Q01DX001 (ip), vehicle: saline with Tween-80 101 % of control | dose: 3.12 mg/kg/injection, schedule: Q04DX003 (ip), vehicle: saline with Tween-80 97 % of control and 98 % of control | dose: 6.25 mg/kg/injection, schedule: Q01DX001 (ip), vehicle: saline with Tween-80 107 % of control | dose: 6.25 mg/kg/injection, schedule: Q04DX003 (ip), vehicle: saline with Tween-80 101 % of control and 104 % of control | dose: 12.5 mg/kg/injection, schedule: Q01DX001 (ip), vehicle: saline with Tween-80 108 % of control | dose: 12.5 mg/kg/injection, schedule: Q04DX003 (ip), vehicle: saline with Tween-80 100 % of control and 102 % of control | [1] 113 % of control

COc1ccc(NC(=O)Oc2ccccc2Cc2ccccc2)cc1
inactive: [9] 95 % of control | [20] 94 % of control | [17] 97 % of control | [21] 103 % of control | [18] 91 % of control
